Assay results taken from patent publication US5795897A, “Oxohexyl methylxanthine compounds” (Cell Therapeutics, Inc., priority 1994, dated 1998).
Entries after “also recorded” stand apart in the source; their conditions may differ.

How the values were obtained:
certain cytokines = details: U.S. Pat. Nos. 4,965,271 and 5,096,906; cited from earlier work
TNF = details: normal volunteers; cited from earlier work
[1] = tested on: polymorphonuclear leukocytes; details: in response to a stimulator of chemotaxis; U.S. Pat. No. 4,636,507; cited from earlier work
[2] = U.S. Pat. Nos 4,515,795 and 4,576,947; cited from earlier work
[3] = tested on: L929 murine fibroblast cells; assay: L929 TNF cytotoxicity assay (protection, fluorescent viability dye); assay type: cell-based; details: TNF-α 500 pg/ml, 40 hrs at 37° C; 2 hrs preincubation; FIG. 1
Protocol: The cells plus (or minus) drug plus TNF were incubated for 40 hrs at 37° C.

[4] = tested on: synaptosomes stimulated with acetylcholine and/or epinephrine (PA and DAG); assay: PA and DAG levels in stimulated synaptosomes; assay type: biochemical
Protocol: (§1) One in vitro assay measures inhibition of the relevant enzymes lysophosphatidic acid acyltransferase (LPAAT) and phosphatidic acid phosphoryl hydrolase (PAPH). The assay involves incubating of target cells with a primary stimulus (e.g., a variety of cytokines, growth factors, oncogene products, putative therapeutic agents, irradiation, viral infection, toxins, bacterial infection and the products thereof, and any stimulus which, if not counteracted, has a deleterious effect on the target cell) in the presence or absence of 1-(5-oxohexyl)-3-methylxanthineat varying dosage levels. Target cells include, for example, subcellular entities, such as, microsomes derived from mesenchymal and/or ectodermal cells, particularly microsomes from marrow stromal cells or human or rat mesangial cells; microsomes or synaptosomes derived from bovine brain; plasma membrane-enriched microsomes or plasma membranes derived as described in Bursten et al. (J. Biol. Chem. […]:20732-20743, 1991) detergent-solubilized microsomes; synaptosomes, and membranes or other cell preparations solubilized using, for example, NP-40,Miranal, SDS or other neutral detergents; and detergent-solubilized or further purified preparations of cell proteins, including the proteins LPAAT and/or PAPH. […] Thus, the relevant unsaturated (non-arachidonic) PA and DAG subspecies may be detected. […]

[5] = tested on: LD-2 cells, a human malignant melanoma cell line; assay: Cytotoxicity on LD-2 cells; assay type: cell-based; details: various concentrations, FIG. 3
Protocol: The cells were treated with various concentrations of CT1505 and later stained for cell viability with a fluorescence stain.
(§2) 1-(5-oxohexyl)-3-methylxanthine was investigated for cytotoxicity to determine appropriate doses for biological activity assays and to prevent cytotoxic reactions in in vitro assays when characterizing activity. Cells (e.g., NIH-3T3, Ras transformed 3T3 cells, malignant melanoma LD2 cells, etc.) are added to microtiter plates and drug is added about two days after plating. Cell viability is determined using a fluorescent viability stain (2', 7'-bis-(2-carboroxyethyl)-5-(and -6)-carboxyfluorescein acetoxymethyl ester, BCECF excitation 488 nm and emission 525 nm) 24,48 or 72 hours after addition of the drug.
This example illustrates that CT1505 has cytotoxic activity for the LD-2 tumor cell line. Cytotoxicity of LD-2 cells was determined with concentrations of CT1505 up to 1.0 mM (see FIG. 3).

[6] = tested on: U937 cells to TNF activated human umbilical vein endothelial cells (HUVEC); assay: Adhesion of U937 cells to TNF-activated HUVEC; assay type: cell-based; details: FIG. 2
Protocol: This example illustrates the effects of CT1505 to inhibit adhesion of U937 cells to TNF-activated HUVEC cells In this experiment, HUVEC cells were induced with human TNF-α(20ng/ml) and incubated with drug (CT1505) at varying concentrations for 14-16 hrs. U937 cells (a human monocyte cell line) were incubated and labeled with BCECF (10 μg/ml), a fluorescent dye. The U937 cell preparation (2.5×10^4 cells per well) was layered on top of the activated HUVEC cells. The cells were reverse spun to remove partially adhering and nonadhering U937 cell. The adherent U937 cells were measured by fluorescence on a fluorescent plate reader.

PA and DAG = assay: Elevation of PA and DAG upon primary stimulus; assay type: cell-based; details: e.g. interleukin-1 or TNF
Protocol: as §1

[7] = tested on: PBMC (peripheral blood mononuclear cells); assay: Mixed lymphocyte reaction; assay type: cell-based, human; details: CT1505 versus PTX, FIG. 5
Source text: Various in vitro assays can be used to measure effects of 1-(5-oxohexyl)-3methylxanthine to module immune activity and have antitumor activity using a variety of cellular types. For example, a mixed lymphocyte reaction (MLR) provides a valuable screening tool to determine biological activity of 1-(5-oxohexyl)-3-methylxanthine. In the MLR, PBMCs (peripheral blood mononuclear cells) are obtained by drawing whole blood from healthy volunteers in a heparinized container and diluted with an equal volume of hanks balanced salt solution (HBSS). This mixture is layered on a sucrose density gradient, such as a Ficoll-Hypaque® gradient (specific gravity 1.08), and centrifuged at 1000×g for 25 minutes at room temperature or cooler. PBMC are obtained from a band at a plasma-Ficoll interface, separated and washed at least twice in a saline solution, such as HBSS. Contaminating red cells are lysed, such as by ACK lysis for 10 min at 37° C., and the PBMCs are washed twice in HBSS. The pellet of purified PBMCs is resuspended in complete medium, such as RPMI 1640 plus 20% human inactivated serum. Proliferative response of PBMC to allogeneic stimulation is determined in a two-way MLR performed in a 96-well microtiter plate. […] At the conclusion of the incubation tritiated thymidine is added (for example, 1 μCi/well of 40 to 60 Ci/mmole) and proliferation determined by liquid scintillation counting. […]

NIH-3T3 cells = assay: Cytotoxicity on NIH-3T3 cells; assay type: cell-based; details: various concentrations, FIG. 4
Protocol: (§3) The cells were treated with various concentrations of CT1505 (in the mM range on a log scale) and later stained for cell viability with a fluorescence stain.
as §2
(§4) This example illustrates that CT1505 has cytotoxic activity for NIH-3T3 and NIH-Ras transformed tumor cells. Cytotoxicity of the cells was determined with concentrations of CT1505 up to 1.0 mM (see FIG. 4).

NIH-3T3 Ras cells = assay: Cytotoxicity on Ras transformed NIH-3T3 cells; assay type: cell-based; details: various concentrations, FIG. 4
Protocol: as §3, §2, §4

| SMILES | activity of certain cytokines to affect chemotaxis (certain cytokines) | TNF levels (TNF) | chemotaxis in polymorphonuclear leukocytes [1] | cerebral blood flow [2] | protection of fibroblast cells from TNF cytotoxicity [3] | effect on enhanced PA and DAG levels [4] | cytotoxicity [5] | concentration range of adhesion inhibitory activity ([6]; TNF-activated HUVEC) | inhibition of adhesion of U937 cells to activated HUVEC ([6]; TNF-α 20 ng/ml, 14-16 hrs) | effect on elevation of PA and DAG levels (PA and DAG) | immune modulating activity [7] | cytotoxicity (NIH-3T3 cells) | cytotoxicity (NIH-3T3 Ras cells) |
| --- | --- | --- | --- | --- | --- | --- | --- | --- | --- | --- | --- | --- | --- |
| CC(=O)CCCCn1c(=O)c2c(ncn2C)n(C)c1=O [PTX, 1-(5-oxohexyl)-3,7-dimethylxanthine] | inhibit activity of certain cytokines | TNF levels were higher among PTX recipients | stimulate chemotaxis |  |  |  |  |  |  |  |  |  |  |
| CC(O)CCCCn1c(=O)c2c(ncn2C)n(C)c1=O (centres unmarked) [M1, 1-(5-hydroxyhexyl)-3,7-dimethylxanthine] |  |  | stimulate chemotaxis | increasing cerebral blood flow |  |  |  |  |  |  |  |  |  |
| CC(=O)CCCCn1c(=O)c2[nH]cnc2n(C)c1=O [CT1505, 1-(5-oxohexyl)-3-methylxanthine] |  |  |  |  | protected the fibroblast cells from TNF cytotoxicity better than PTX and much better than the control cells | able to decrease enhanced levels of a relevant PA and DAG | cytotoxic at higher concentrations | tenths of mM | inhibits adhesion of U937 cells to TNF activated human umbilical vein endothelial cells; also recorded: inhibited the inflammatory response of the activated HUVEC cells to adhere U937 monocytes in a dose response fashion | reverses this elevation | more potent immune modulating activity with CT1505 than with PTX; also recorded: more potent drug for cause immune modulating activity than was PTX | cytotoxic at higher concentrations | cytotoxic at higher concentrations |
